Assay results: patent US10683311B2 (priority 2015, dated 2020)

Test: log P by HPLC on reversed-phase column (C18), EEC Directive 79/831 Annex V.A8
Type: physicochemical
Conditions: Method A: 40° C., 0.1% aqueous formic acid and acetonitrile
Method: In table 1, the log P values were determined in accordance with EEC Directive 79/831 Annex V.A8 by HPLC (High Performance Liquid Chromatography) on a reversed-phase column (C18), using the methods described below:
Method A: temperature: 40° C.; mobile phases: 0.1% aqueous formic acid and acetonitrile; linear gradient from 10% acetonitrile to 95% acetonitrile;
Method B: temperature: 40° C.; mobile phases: 0.001 molar ammonium acetate solution in water and acetonitrile; linear gradient from 10% acetonitrile to 95% acetonitrile.
Calibration was carried out using unbranched alkan-2-ones (comprising 3 to 16 carbon atoms) with known log P values (determination of the log P values by the retention times using linear interpolation between two successive alkanones). lambda-max-values were determined using UV-spectra from 200 nm to 400 nm and the peak values of the chromatographic signals.

Compound	logP
C[Si](C)(C)c1ccccc1Oc1cnc2c(F)c(F)ccc2n1 [I.079]	5.28
C[Si](C)(c1ccccc1Oc1cnc2c(F)c(F)ccc2n1)C1CCCCC1 [I.080]	6.94
C[Si](C)(O)c1ccccc1Oc1cnc2c(F)c(F)ccc2n1 [I.081]	3.23
C[Si](C)(O)c1c(F)cccc1Oc1cnc2c(F)c(F)ccc2n1 [I.082]	3.33
C[Si](C)(F)c1c(F)cccc1Oc1cnc2c(F)c(F)ccc2n1 [I.083]	5.01
C[Si](C)(C)c1ccccc1Nc1cnc2c(F)c(F)ccc2n1 [I.084]	4.49
Cc1nc2c(F)c(F)ccc2nc1Oc1cccc(F)c1[Si](C)(C)O [I.085]	3.67
Cc1nc2c(F)c(F)ccc2nc1Oc1ccccc1[Si](C)(C)C [I.086]	5.46
Cc1nc2c(F)c(F)ccc2nc1Oc1ccccc1[Si](C)(C)O [I.087]	3.35
Cc1nc2c(F)c(F)ccc2nc1Oc1cccc(F)c1[Si](C)(C)C [I.088]	5.65
Cc1nc2c(F)c(F)ccc2nc1Oc1c(F)cccc1[Si](C)(C)O [I.089]	3.62
Cc1nc2c(F)c(F)ccc2nc1Oc1cccc(Cl)c1[Si](C)(C)O [I.090]	3.94
C=C[Si](C)(C)c1c(F)cccc1Oc1nc2ccc(F)c(F)c2nc1C [I.091]	5.62
Cc1nc2c(F)c(F)ccc2nc1Oc1cccc(F)c1[Si](C)(C)F [I.092]	4.75
Cc1nc2c(F)c(F)ccc2nc1Oc1cc(C#N)ccc1[Si](C)(C)O [I.093]	3.39
COc1cccc(Oc2nc3ccc(F)c(F)c3nc2C)c1[Si](C)(C)O [I.094]	3.60
Cc1nc2c(F)c(F)ccc2nc1Oc1cccc(OC(F)(F)F)c1[Si](C)(C)O [I.095]	4.34
Cc1ccc([Si](C)(C)O)c(Oc2nc3ccc(F)c(F)c3nc2C)c1 [I.096]	3.76
Cc1ccc([Si](C)(C)O)c(Oc2nc3ccc(F)c(F)c3nc2C)c1 [I.097]	3.76
Cc1nc2c(F)c(F)ccc2nc1Oc1ccc(F)cc1[Si](C)(C)O [I.098]	3.63
Cc1ccc(Oc2nc3ccc(F)c(F)c3nc2C)c([Si](C)(C)O)c1 [I.099]	3.85
Cc1nc2c(F)c(F)ccc2nc1Oc1ccc(F)cc1[Si](C)(C)C [I.100]	5.57

Compound	logP
Cc1nc2c(F)c(F)ccc2nc1Oc1ccc(Cl)cc1[Si](C)(C)C [I.101]	6.11
Cc1nc2c(F)c(F)ccc2nc1Oc1ccc(Cl)cc1[Si](C)(C)O [I.102]	4.01
Cc1nc2c(F)c(F)ccc2nc1Oc1c(Cl)cccc1[Si](C)(C)O [I.103]	3.96
Cc1cccc([Si](C)(C)O)c1Oc1nc2ccc(F)c(F)c2nc1C [I.104]	3.73
Cc1nc2c(F)c(F)ccc2nc1Oc1cc(F)ccc1[Si](C)(C)O [I.105]	3.58
Cc1nc2c(F)c(F)ccc2nc1Oc1c(Cl)cccc1[Si](C)(C)C [I.106]	6.07
Cc1cccc([Si](C)(C)C)c1Oc1nc2ccc(F)c(F)c2nc1C [I.107]	5.88
Cc1nc2c(F)c(F)ccc2nc1Oc1cc(F)ccc1[Si](C)(C)C [I.108]	5.57
Cc1nc2ccccc2nc1Oc1cccc(F)c1[Si](C)(C)O [I.109]	3.25
Cc1nc2ccccc2nc1Oc1ccccc1[Si](C)(C)C [I.110]	5.31
Cc1nc2ccccc2nc1Oc1cccc(F)c1[Si](C)(C)C [I.111]	5.45
Cc1nc2ccccc2nc1Oc1ccccc1[Si](C)(C)O [I.112]	3.01
Cc1nc2ccccc2nc1Oc1cccc(F)c1[Si](C)(C)c1cccs1 [I.113]	5.51
COc1ccc([Si](C)(C)c2c(F)cccc2Oc2nc3ccccc3nc2C)cc1 [I.114]	5.35
Cc1nc2ccccc2nc1Oc1cccc(F)c1[Si](C)(C)c1ccccc1 [I.115]	5.59
C[Si](C)(O)c1c(F)cccc1Oc1cnc2ccsc2c1 [I.117]	2.80
C[Si](C)(C)c1c(F)cccc1Oc1cnc2ccsc2c1 [I.118]	5.22
C[Si](C)(O)c1c(F)cccc1Oc1cnc2sccc2c1 [I.119]	3.09
C[Si](C)(C)c1c(F)cccc1Oc1cnc2sccc2c1 [I.120]	5.45
C[Si](C)(O)c1c(F)cccc1Oc1cnc2ccnn2c1 [I.121]	2.07
C[Si](C)(C)c1c(F)cccc1Oc1cnc2ccnn2c1 [I.122]	4.23
C[Si](C)(C)c1ccccc1Oc1cnc2ccnn2c1 [I.123]	4.11

Compound	logP
C[Si](C)(C)c1ccccc1Oc1cnc2nccn2c1 [I.124]	2.78
C[Si](C)(O)c1ccccc1Oc1cnc2nccn2c1 [I.125]	2.10
C[Si](C)(O)c1ccccc1Oc1cnc2c(F)cnn2c1 [I.126]	2.50
C[Si](C)(O)c1c(F)cccc1Oc1cnc2c(F)cnn2c1 [I.127]	2.60
C[Si](C)(C)c1c(F)cccc1Oc1cnc2c(F)cnn2c1 [I.128]	4.61
C[Si](C)(C)c1ccccc1Oc1cnc2c(F)cnn2c1 [I.129]	4.56
Cc1c(Cc2ccccc2[Si](C)(C)C)cnc2ccccc12 [I.130]	3.19
C[Si](C)(C)c1c(F)cccc1Sc1cnc2ccccc2c1 [I.131]	5.72
C[Si](C)(C)c1c(F)cccc1[S+]([O-])c1cnc2ccccc2c1 (centres unmarked) [I.132]	3.63
C[Si](C)(C)c1c(F)cccc1C(O)c1cnc2ccccc2c1 (centres unmarked) [I.133]	4.16
Cc1nc2ccccc2cc1Oc1ccc(Cl)cc1[Si](C)(C)C [I.134]	5.68
Cc1nc2ccccc2cc1Oc1ccc(-c2ccccc2)cc1[Si](C)(C)C [I.135]	6.27
Cc1nc2ccccc2cc1Oc1ccc(C2CC2)cc1[Si](C)(C)C [I.136]	5.68
C=Cc1ccc(Oc2cc3ccccc3nc2C)c([Si](C)(C)C)c1 [I.137]	5.51
Cc1nc2ccccc2cc1Oc1ccc(-c2ccsc2)cc1[Si](C)(C)C [I.138]	5.85
Cc1nc2ccccc2cc1Cc1ccccc1[Si](C)(C)C [I.139]	2.76
Cc1nc2ccccc2cc1Cc1ccccc1[Si](C)(C)c1ccccc1 [I.140]	2.88
C[Si](C)(c1ccccc1)c1ccccc1Cc1cnc2cccnc2c1 [I.141]	4.14
C[Si](C)(Cc1ccccc1)c1ccccc1Cc1cnc2ccccc2c1 [I.142]	4.94
C[Si](C)(c1ccc(Cc2ccccc2)cc1)c1ccccc1Cc1cnc2ccccc2c1 [I.143]	5.78

Same assay, conditions: logP Method A

Compound	logP
Cc1nc2c(F)c(F)ccc2cc1Oc1cc([N+](=O)[O-])ccc1Br [II.06A]	4.04

Same assay, conditions: reversed-phase HPLC column (C18), Method A: 40° C., 0.1% aqueous formic acid and acetonitrile

Compound	chromatographic logP
Fc1cccc(Oc2cnc3ccccc3c2)c1I [IIa.01, 3-(3-fluoro-2-iodophenoxy)quinoline]	3.71
Ic1ccccc1Oc1cnc2ccccc2c1 [IIa.02, 3-(2-iodophenoxy)quinoline]	3.71
Brc1ccccc1Oc1cnc2ccccc2c1 [IIa.03, 3-(2-bromophenoxy)quinoline]	3.47
Fc1cccc2cc(Oc3ccccc3Br)cnc12 [IIa.04, 3-(2-bromophenoxy)-8-fluoroquinoline]	3.61
Cc1nc2c(F)cccc2cc1Oc1ccccc1Br [IIa.05, 3-(2-bromophenoxy)-8-fluoro-2-methylquinoline]	3.96
Fc1ccc2cc(Oc3ccccc3Br)cnc2c1F [IIa.06, 3-(2-bromophenoxy)-7,8-difluoroquinoline]	3.92
Cc1nc2c(F)c(F)ccc2cc1Oc1ccccc1Br [IIa.07, 3-(2-bromophenoxy)-7,8-difluoro-2-methylquinoline]	4.25
Cc1nc2ccccc2cc1Oc1ccccc1Br [IIa.08, 3-(2-bromophenoxy)-2-methylquinoline]	3.96
Cc1nc2c(F)c(F)ccc2cc1Oc1c(F)cccc1Br [IIa.09, 3-(2-bromo-6-fluorophenoxy)-7,8-difluoro-2-methylquinoline]	4.25
Cc1nc2c(F)c(F)ccc2cc1Oc1cc(F)ccc1Br [IIa.10, 3-(2-bromo-5-fluorophenoxy)-7,8-difluoro-2-methylquinoline]	4.34
Fc1ccc(Oc2cnc3c(Cl)cccc3c2)c(Br)c1 [IIa.11, 3-(2-bromo-4-fluorophenoxy)-8-chloroquinoline]	4.18
Cc1nc2c(F)c(F)ccc2cc1Oc1ccc(F)cc1Br [IIa.12, 3-(2-bromo-4-fluorophenoxy)-7,8-difluoro-2-methylquinoline]	4.25
Cc1nc2ccccc2cc1Oc1ccc(F)cc1Br [IIa.13, 3-(2-bromo-4-fluorophenoxy)-2-methylquinoline]	3.35

Same assay, conditions: reversed-phase HPLC column (C18), Method B: 40° C., 0.001 molar ammonium acetate solution in water and acetonitrile

Compound	chromatographic logP
Brc1c(COC2CCCCO2)cccc1Nc1cnc2ccccc2c1 (centres unmarked) [II.04A, N-{2-bromo-3-[(tetrahydro-2H-pyran-2-yloxy)methyl]phenyl}quinolin-3-amine]	4.13

Same assay, conditions: reversed-phase HPLC column (C18), logP Method A

Compound	chromatographic logP
O=Cc1cccc(Oc2cnc3ccccc3c2)c1I [II.01A]	3.29
O=Cc1cccc(Oc2cnc3c(F)c(F)ccc3n2)c1Br [II.01B]	3.48
OCc1cccc(Oc2cnc3ccccc3c2)c1I [II.02A]	2.59
Cc1nc2ccccc2cc1Oc1cccc(CCO)c1Br [II.03A]	2.14
Cc1nc2ccccc2cc1Oc1cccc(CCCl)c1Br [II.08A]	3.99

Same assay, conditions: reversed-phase HPLC column (C18), logP Method B

Compound	chromatographic logP
Brc1c(COC2CCCCO2)cccc1Nc1cnc2ccccc2c1 (centres unmarked) [II.04A, N-{2-bromo-3-[(tetrahydro-2H-pyran-2-yloxy)methyl]phenyl}quinolin-3-amine]	4.13
Ic1c(COC2CCCCO2)cccc1Oc1cnc2ccccc2c1 (centres unmarked) [II.05A]	4.56
